Measured values taken from patent publication US20230025510A1, “BIARYL ETHER-TYPE QUINAZOLINE DERIVATIVES” (DAIICHI SANKYO COMPANY, LIMITED, priority 2018, published 2023).

How the values were obtained:
Assay type in all cases: cell-based
[1] = system: Ba/F3-EGFR WT cells; assay: Cell proliferation suppression test (CellTiter-Glo, GI50), Ba/F3-EGFR WT; conditions: Mus musculus, 72 h, 100 ng/mL EGF, 3 days, N=4
Experimental: (§1) Cell proliferation suppression test Ba/F3-Mock, Ba/F3-EGFR WT, Ba/F3-EGFR ins. ASV, and Ba/F3-EGFR ins. SVD cell lines were cultured based on a culture medium of 10% FBS-containing RPMI 1640 supplemented with 1.5 ug/mL puromycin, and 5 ng/mL IL-3 and 100 ng/mL of EGF were further added to the culture solution for Ba/F3-Mock and Ba/F3-EGFR WT, respectively. The cells were cultured in a CO2 incubator set at 37° C., 5% CO2. Specimens prepared by dilution were seeded into 384-well tissue culture plates with Echo555 (Labcyte Inc.), and the cells were seeded thereto at 400 cells/well for Ba/F3-Mock, Ba/F3-EGFR WT, and Ba/F3-EGFR ins. SVD and at 200 cells/well for Ba/F3-EGFR ins. ASV (day 0), then they were cultured for an additional 3 days. On the day of the compound addition (day 0) and 3 days after the compound addition (day 3), ATP quantity was measured with CellTiter-Glo (registered trademark) 2.0 (Promega Corporation.), and used as an indicator of cell quantity (N=4). In the test, puromycin-free culture medium was used. Concentrations at which cell proliferation from day 0 to day 3 was inhibited by 50% (GIso) were calculated with EXCEL.

[2] = system: Ba/F3-EGFR ins. ASV cells; assay: Cell proliferation suppression test (CellTiter-Glo, GI50), Ba/F3-EGFR ins. ASV; conditions: Mus musculus, 72 h, 3 days, N=4
Experimental: as §1

[3] = system: Ba/F3-EGFR ins. SVD cells; assay: Cell proliferation suppression test (CellTiter-Glo, GI50), Ba/F3-EGFR ins. SVD; conditions: Mus musculus, 72 h, 3 days, N=4
Experimental: as §1

[4] = system: Ba/F3-Mock cells; assay: Cell proliferation suppression test (CellTiter-Glo, GI50), Ba/F3-Mock; conditions: Mus musculus, BaF3, 72 h, 5 ng/mL IL-3, 3 days, N=4
Experimental: as §1

| Compound | GI50 [1] [nM] | GI50 [2] [nM] | GI50 [3] [nM] | GI50 [4] [nM] |
| --- | --- | --- | --- | --- |
| C=CC(=O)N1CCC(Oc2cc3c(Nc4ccc(Oc5cccc(-c6nnc(C)o6)c5)cc4F)ncnc3cc2OCF)CC1 [Example 19, 1-(4-{[7-(Fluoromethoxy)-4-{2-fluoro-4-[3-(5-methyl-1,3,4-oxadiazol-2-yl)phenoxy]anilino}quinazolin-6-yl]oxy}piperidin-1-yl)prop-2-en-1-one] | 386 | 23.5 | 20.2 | 4920 |
| [2H]C([2H])([2H])Oc1cc2ncnc(Nc3ccc(Oc4ccn(C(=O)NC(C)(C)C)n4)cc3F)c2cc1OC1CCN(C(=O)C=C)CC1 [Example 20, N-tert-Butyl-3-{3-fluoro-4-[(7-[(^2H3)methyloxy]-6-{[1-(prop-2-enoyl)piperidin-4-yl]oxy}quinazolin-4-yl)amino]phenoxy}-1H-pyrazole-1-carboxamide] | 171 | 18.6 | 9 | > 10000 |
| [2H]C([2H])([2H])Oc1cc2ncnc(Nc3ccc(Oc4ccn(C(=O)NC(C([2H])([2H])[2H])(C([2H])([2H])[2H])C([2H])([2H])[2H])n4)cc3F)c2cc1OC1CCN(C(=O)C=C)CC1 [Example 21, 3-{3-Fluoro-4-[(7-[(^2H3)methyloxy]-6-{[1-(prop-2-enoyl)piperidin-4-yl]oxy}quinazolin-4-yl)amino]phenoxy}-N-[2-(^2H3)methyl(^2H6)propan-2-yl]-1H-pyrazole-1-carboxamide] | 129 | 12.1 | 7.3 | 7990 |

Further lines, with some results ahead:

| GI50 [1] [nM] | GI50 [2] [nM] | GI50 [3] [nM] | Compound | GI50 [4] [nM] |
| --- | --- | --- | --- | --- |
| 102 | 14.5 | 12.8 | C=CC(=O)N1CCC(Oc2cc3c(Nc4ccc(Oc5ccn(C(=O)NC6(C(F)(F)F)CC6)n5)cc4F)ncnc3cc2OC)CC1 [Example 22, 3-{3-Fluoro-4-[(7-methoxy-6-{[1-(prop-2-enoyl)piperidin-4-yl]oxy}quinazolin-4-yl)amino]phenoxy}-N-[1-(trifluoromethyl)cyclopropyl]-1H-pyrazole-1-carboxamide] | 8620 |
| 110 | 12.4 | 10.9 | C=CC(=O)N1CCC(Oc2cc3c(Nc4ccc(Oc5ccn(C(=O)NC(C)(CF)CF)n5)cc4F)ncnc3cc2OC)CC1 [Example 23, N-(1,3-Difluoro-2-methylpropan-2-yl)-3-{3-fluoro-4-[(7-methoxy-6-{[1-(prop-2-enoyl)piperidin-4-yl]oxy}quinazolin-4-yl)amino]phenoxy}-1H-pyrazole-1-carboxamide] | 5530 |
| 42.4 | 11.8 | 9.9 | C=CC(=O)N1CCC(Oc2cc3c(Nc4ccc(Oc5ccn(C(=O)N[C@H](C)C(F)(F)F)n5)cc4F)ncnc3cc2OC)CC1 [Example 24, 3-{3-Fluoro-4-[(7-methoxy-6-{[1-(prop-2-enoyl)piperidin-4-yl]oxy}quinazolin-4-yl)amino]phenoxy}-N-[(2R)-1,1,1-trifluoropropan-2-yl]-1H-pyrazole-1-carboxamide] | 6470 |
| 180 | 18.8 | 12.4 | [2H]C([2H])([2H])C(NC(=O)n1ccc(Oc2ccc(Nc3ncnc4cc(OC)c(OC5CCN(C(=O)C=C)CC5)cc34)c(F)c2)n1)(C([2H])([2H])[2H])C([2H])([2H])[2H] [Example 25, 3-{3-Fluoro-4-[(7-methoxy-6-{[1-(prop-2-enoyl)piperidin-4-yl]oxy}quinazolin-4-yl)amino]phenoxy}-N-[2-(^2H3)methyl(^2H6)propan-2-yl]-1H-pyrazole-1-carboxamide] | > 10000 |
| 191 | 17.5 | 53.7 | COc1cc2ncnc(Nc3ccc(Oc4ccn(C(=O)N5CCCC5)n4)cc3F)c2cc1NC(=O)/C=C/CN(C)C [Example 26, (2E)-4-(Dimethylamino)-N-[4-(2-fluoro-4-{[1-(pyrrolidin-1-ylcarbonyl)-1H-pyrazo1-3-yl]oxy}anilino)-7-methoxyquinazolin-6-yl]but-2-enamide] | 1060 |
